“Also recorded” adds a separate entry of the source. Residues, ends and D or L forms follow the SMILES beside them. No end group written: not given here. *: point of attachment. 6FAM = O=C1OC2(c3ccc(O)cc3Oc3cc(O)ccc32)c2cc(C(=O)*)ccc21
Tests used:
[1] = tested on: retinal tissues and cells; assay: Retinal penetration of FAM-labeled peptide after intravitreal injection, fluorescence microscopy of cryosections; type: in vivo, C57BL/6J mice; details: for localization in retinal layers: 1 µg in 1 µL H2O intravitreal, 4 hours postinjection, fluorescence microscopy of cryosections, n = 4 to 5 animals per group
Method: Retinal cryosections (14 µm) were rehydrated in phosphate-buffered saline (PBS) for 15 minutes, permeabilized, and blocked with 6% normal goat serum in PBS containing 0.1% Triton-X-100 (or using mouse-on-mouse kit as appropriate) for 45 minutes and incubated overnight in a saturated chamber with the primary antibodies against anti-glutamine synthetase (Müller cells), anti–β-III-tubulin (ganglion cells), anti-rhodopsin (rod cells), anti–S-opsin (cone cells), and anti-PKCα (bipolar cells). Subsequently, sections were washed and incubated with respective secondary antibodies labeled with Alexa Fluor 594 or 488 (Molecular Probes, Eugene, OR, USA) or Cy3 (Jackson Immunoresearch, Westgrove, PA, USA). Slides were mounted in antifade medium containing DAPI (Vectashield-DAPI; Vector Laboratories, Burlingame, CA, USA) to counterstain nuclei, and images were captured with a Leica TCS SPE microscope (Leica Microsystems, Wetzlar, Germany).
(§1) In order to determine whether Nuc1 peptide was toxic to the murine retina, we injected various amounts (0.5–4.0 µg) 5′ 6-FAM–labeled Nuc1 into the vitreous of 6-week-old C57BL/6J mice and processed the retinas as described below. We determined that 1 µg Nuc1 was not toxic to the retina, whereas 4.0 µg Nuc1 generated some toxicity (data not shown). Based on these observations, we selected 1 µg as an optimal working dose. We then injected 1 µg 5′ 6-FAM–labeled Nuc1 suspended in 1 µL H2O or 1 µg 5′ 6-FAM-SC (a scrambled peptide) into the vitreous of 6-week-old C57BL/6J mice. Four hours postinjection, eyes were enucleated, fixed, and cryosectioned and the retina was imaged by fluorescence microscopy. […] We conclude that Nuc1 peptide penetrates the retina and labels a variety of retinal cells following intravitreal injection.

[2] = tested on: murine retinal tissue explants; assay: Retinal explant culture uptake with or without imipramine (macropinocytosis); type: cell-based, C57BL6/J mice; details: 37°C, confocal imaging, n = 3–4 explants per group; for uptake into retinal explants in presence of imipramine: 1 µg/mL in DMEM/F12 + 5 µM imipramine, 4 hours; for uptake into retinal explants: 1 µg/mL in DMEM/F12, 4 hours, 5% CO2, absence of imipramine
Method: After careful removal, the eyeballs from C57BL6/J mice were transferred to a Petri dish containing fresh cold Dulbecco's modified Eagle's medium (DMEM). Under a dissecting microscope, the cornea, ocular muscles, and lens were removed and flat mounts prepared via making four incisions from the margin of the eye cup toward the optic nerve. Flat mounts were transferred into six-well plates containing fresh DMEM/F12 mixed with 5′ 6-FAM-Nuc1 or 5′ 6-FAM-SC (1 µg/mL) in presence or absence of 5 µM imipramine (Sigma). After 4 hours of culturing in a cell culture incubator (37°C, 5% CO2), retinas were washed twice with PBS and fixed with 4% PFA for 15 minutes. Thereafter, the tissue sections were soaked in 15% to 30% sucrose at 4°C overnight. Retinal explants were frozen into Tissue-Tek cryomolds (Torrence, CA, USA) and the 14-µm sections were imaged under a Leica (Teaneck, NJ, USA) TCS-SPE confocal microscope.
Macropinocytosis is a specialized pathway of endocytosis characterized by the nonspecific internalization of extracellular fluids, solutes, and membrane in large endocytic vesicles known as macropinosomes. Macropinocytosis plays a role in a variety of physiological processes, including nutrient sensing, recycling of plasma proteins, and signaling.[42]^,[43] Molecules that bind HSPGs can stimulate bulk cellular uptake via macropinocytosis.[19] […] In order to test the hypothesis that Nuc1 can be taken up by cells via macropinocytosis, murine retinal tissue explants were incubated in 5′ 6-FAM-Nuc1 (1 µg/mL) in the presence or absence of 5 µM imipramine. After 4 hours, explants were processed for cryosectioning as above. We found robust uptake of 5′ 6-FAM-Nuc1 within 4 hours of incubation (Fig. 7). […] We conclude that Nuc1 peptide penetrates retinal cells in part by the process of macropinocytosis.

murine retina = assay: Retinal toxicity of Nuc1 after intravitreal injection; type: in vivo, C57BL/6J mice; details: for toxicity to the retina: 6-week-old C57BL/6J mice, data not shown
Method: as §1
Furthermore, while sequences used in the design of Nuc1 were selected based on prior studies of nucleolin and heparan-sulfate proteoglycan-binding sequences, detailed analysis of mechanism(s) of uptake is ongoing in our laboratory. Such studies face the challenge of limitations associated with retinal cell culture with a bona fide extracellular matrix.

Compound | localization in retinal layers [1] | retinal cell types targeted ([1]; 1 µg intravitreal, 4 hours, costaining for tubulin, PKC, rod opsin, glutamine synthase) | uptake into retinal explants in presence of imipramine [2] | uptake into retinal explants [2] | toxicity to the retina (murine retina; 1 µg 5′ 6-FAM-labeled Nuc1 intravitreal) | toxicity to the retina (murine retina; 4.0 µg 5′ 6-FAM-labeled Nuc1 intravitreal) | obvious toxicity associated with Nuc1 (murine retina; short-term (4 hours) or longer-term (2 weeks) proof-of-concept studies)
CC[C@H](C)[C@H](NC(=O)[C@H](CO)NC(=O)[C@H](C)NC(=O)c1ccc2c(c1)C1(OC2=O)c2ccc(O)cc2Oc2cc(O)ccc21)C(=O)N[C@@H](CCCCN)C(=O)N[C@H](C(=O)N[C@@H](C)C(=O)N[C@H](C(=O)N[C@@H](CO)C(=O)N[C@@H](C)C(=O)NCC(=O)NCC(=O)N[C@@H](CC(=O)O)C(=O)N[C@@H](CCCCN)C(=O)N1CCC[C@H]1C(=O)N[C@@H](CCCNC(=N)N)C(=O)N[C@@H](CCCNC(=N)N)C(=O)O)C(C)C)C(C)C [5′ 6-FAM-Nuc1] (6FAM-ASIKVAVSAGGDKPRR-OH) | abundantly localized to all layers of the retina; also recorded: localizes to all layers of the retina | ganglion cells, bipolar cells, photoreceptors, and Müller cells | significantly reduced uptake | robust uptake |  |  | 
CC[C@H](C)[C@H](NC(=O)[C@H](CO)NC(=O)[C@H](C)NC(=O)[C@H](CCCNC(=N)N)NC(=O)c1ccc2c(c1)C1(OC2=O)c2ccc(O)cc2Oc2cc(O)ccc21)C(=O)N[C@@H](C)C(=O)N[C@@H](CCCCN)C(=O)N[C@@H](C)C(=O)N[C@@H](CCCNC(=N)N)C(=O)N[C@@H](CC(=O)O)C(=O)N[C@H](C(=O)N[C@@H](CCCCN)C(=O)NCC(=O)N[C@H](C(=O)N1CCC[C@H]1C(=O)NCC(=O)N[C@@H](CO)C(=O)O)C(C)C)C(C)C [5′ 6-FAM-SC, reference compound] (6FAM-RASIAKARDVKGVPGS-OH) | accumulated primarily at the inner limiting membrane and was very weakly visible in the retina; also recorded: does not significantly penetrate the retina |  | marginal reduction in uptake | did not show any significant uptake |  |  | 
ASIKVAVSAGGDKPRR [Nuc1] |  |  |  |  | not toxic | some toxicity | did not observe any obvious toxicity
